{"source": "EPA's ToxRefDB 2", "key": {"[1]": {"test_system": "rat", "conditions": "Prenatal developmental toxicity study, sprague dawley, Oral, Gavage/Intubation, dose end: 19 GD"}, "[2]": {"test_system": "rat", "conditions": "Subchronic oral toxicity in rodents, sprague dawley, Gavage/Intubation, dose end: 13 week, group: systemic"}, "[3]": {"test_system": "rat", "conditions": "Prenatal developmental toxicity study, sprague dawley, Oral, Gavage/Intubation, dose end: 19 GD", "remark": "listed apart in the source"}, "[4]": {"test_system": "mouse", "conditions": "Subchronic oral toxicity in rodents, cd1, Feed, dose end: 6 week, group: systemic"}, "[5]": {"test_system": "rat", "conditions": "Subchronic oral toxicity in rodents, sprague dawley, Feed, dose end: 13 week, group: systemic"}, "[6]": {"test_system": "rabbit", "conditions": "Prenatal developmental toxicity study, dutch, Oral, Gavage/Intubation, dose end: 18 GD"}, "[7]": {"conditions": "group: developmental, systemic / in life observation / body weight / fetal weight"}, "[8]": {"conditions": "group: maternal, reproductive / reproductive performance / estrous cycle / corpora lutea"}, "[9]": {"conditions": "group: maternal, systemic / in life observation / body weight / body weight + systemic / in life observation / body weight / body weight gain + systemic / in…"}, "[10]": {"conditions": "systemic / pathology microscopic / stomach / edema + systemic / pathology microscopic / stomach / hyperkeratosis + systemic / pathology …"}, "[11]": {"conditions": "group: maternal, systemic / in life observation / clinical signs / salivation + systemic / in life observation / body weight / body weight + systemic / in …"}, "[12]": {"conditions": "systemic / in life observation / body weight / body weight gain + systemic / pathology microscopic / stomach / [other] + systemic / …"}, "[13]": {"conditions": "systemic / in life observation / clinical signs / piloerection + systemic / organ weight / heart / absolute + systemic / pathology gross / …"}, "[14]": {"conditions": "systemic / hematology / leukocyte (wbc) count differential / leukocyte (wbc)"}, "[15]": {"conditions": "group: developmental, developmental / developmental malformation / bone / unossified + systemic / in life observation / body weight / fetal weight"}, "[16]": {"conditions": "group: maternal, systemic / in life observation / body weight / body weight gain + systemic / in life observation / mortality / mortality"}, "[17]": {"conditions": "group: maternal, systemic / in life observation / body weight / body weight gain + systemic / in life observation / mortality / mortality + reproductive / …"}}, "data": [{"compound": "O=C(CBr)OCC=CCOC(=O)CBr", "note": "[1,4-Bis(bromoacetoxy)-2-butene]", "values": [{"measurement": "LEL", "setting": "[1]; [7]", "value": 50, "unit": "mg/kg/day"}, {"measurement": "LOAEL", "setting": "[1]; [7]", "value": 50, "unit": "mg/kg/day"}, {"measurement": "NEL", "setting": "[1]; [7]", "value": 25, "unit": "mg/kg/day"}, {"measurement": "NOAEL", "setting": "[1]; [7]", "value": 25, "unit": "mg/kg/day"}, {"measurement": "LEL", "setting": "[1]; [8]", "value": 25, "unit": "mg/kg/day"}, {"measurement": "NEL", "setting": "[1]; [8]", "value": "< 25", "unit": "mg/kg/day"}, {"measurement": "LOAEL", "setting": "[1]; [9]", "value": 50, "unit": "mg/kg/day"}, {"measurement": "NOAEL", "setting": "[1]; [9]", "value": 25, "unit": "mg/kg/day"}, {"measurement": "NEL", "setting": "[2]; systemic / clinical chemistry / calcium / calcium + systemic / clinical chemistry / glucose / glucose + systemic / clinical chemistry / urea…", "value": 39.1, "unit": "mg/kg/day"}, {"measurement": "LOAEL", "setting": "[2]; [10]", "value": 4.5, "unit": "mg/kg/day"}, {"measurement": "NOAEL", "setting": "[2]; [10]", "value": "< 4.5", "unit": "mg/kg/day"}, {"measurement": "LEL", "setting": "[3]; [7]", "value": 35, "unit": "mg/kg/day"}, {"measurement": "LOAEL", "setting": "[3]; [7]", "value": 35, "unit": "mg/kg/day"}, {"measurement": "NEL", "setting": "[3]; [7]", "value": 20, "unit": "mg/kg/day"}, {"measurement": "NOAEL", "setting": "[3]; [7]", "value": 20, "unit": "mg/kg/day"}, {"measurement": "LOAEL", "setting": "[3]; group: maternal, systemic / in life observation / clinical signs / salivation", "value": 20, "unit": "mg/kg/day"}, {"measurement": "NEL", "setting": "[3]; [11]", "value": 5, "unit": "mg/kg/day"}, {"measurement": "NOAEL", "setting": "[3]; [11]", "value": 5, "unit": "mg/kg/day"}, {"measurement": "LEL", "setting": "[3]; group: maternal, systemic / in life observation / clinical signs / salivation + systemic / in life observation / clinical signs / fur (altered appearance) + …", "value": 20, "unit": "mg/kg/day"}]}, {"compound": "Clc1nc(Cl)nc(Nc2ccccc2Cl)n1", "note": "[Anilazine]", "values": [{"measurement": "LOAEL", "setting": "[4]; [12]", "value": 1380, "unit": "mg/kg/day"}, {"measurement": "NOAEL", "setting": "[4]; [12]", "value": 339, "unit": "mg/kg/day"}, {"measurement": "LEL", "setting": "[4]; [13]", "value": 334, "unit": "mg/kg/day"}, {"measurement": "NEL", "setting": "[4]; [13]", "value": "< 334", "unit": "mg/kg/day"}, {"measurement": "LOAEL", "setting": "[5]; [14]", "value": 45.9, "unit": "mg/kg/day"}, {"measurement": "NOAEL", "setting": "[5]; [14]", "value": "< 45.9", "unit": "mg/kg/day"}, {"measurement": "NEL", "setting": "[5]; systemic / organ weight / liver / relative to body weight + systemic / organ weight / lung / relative to body weight + systemic / organ …", "value": 600, "unit": "mg/kg/day"}, {"measurement": "LEL", "setting": "[6]; [15]", "value": 75, "unit": "mg/kg/day"}, {"measurement": "LOAEL", "setting": "[6]; [15]", "value": 75, "unit": "mg/kg/day"}, {"measurement": "NEL", "setting": "[6]; [15]", "value": 40, "unit": "mg/kg/day"}, {"measurement": "NOAEL", "setting": "[6]; [15]", "value": 40, "unit": "mg/kg/day"}, {"measurement": "LEL", "setting": "[6]; [16]", "value": 40, "unit": "mg/kg/day"}, {"measurement": "LOAEL", "setting": "[6]; [16]", "value": 40, "unit": "mg/kg/day"}, {"measurement": "NEL", "setting": "[6]; [17]", "value": 15, "unit": "mg/kg/day"}, {"measurement": "NOAEL", "setting": "[6]; [17]", "value": 15, "unit": "mg/kg/day"}]}]}
